Experimental data: US8048642B2, “Heme choline esters and uses thereof” (priority 2007, dated 2011)

Experiments:
Assay type in all cases: biochemical
[1] = target: butyrylcholine esterase (BCE) (Equus caballus, UniProt P81908); assay: Hydrolysis of heme bis choline ester by butyrylcholine esterase, followed by HPLC; conditions: bis choline ester with BCE (50 units) in phosphate buffer pH 7.0, HPLC at 400 nm
Experimental: To confirm enzymatic hydrolysis of heme bis choline ester, a sample of bis choline ester in methanol was added to a solution of butyrylcholine esterase (BCE) (50 units) in phosphate buffer (pH 7.0). The progress of the hydrolysis was determined by HPLC analysis of the reaction mixture using a Waters Xterra C18 reverse phase column (4.6×50 mm). A gradient elution was performed starting with 95:5 water (+0.1% TFA):acetonitrile (+0.1% TFA) up to 0:100 over 10 minutes followed by isocratic elution with acetonitrile (+0.1% TFA) for 5 minutes. […] Under these conditions the bis ester elutes first (tR=5.2 min) followed by the monoester (5.9 min) and heme (6.6 min).

[2] = target: T1, apo-horseradish peroxidase (apo-HRP) (Armoracia rusticana, UniProt P00433); assay: Recombination of heme and apo-HRP, TMB colorimetry; conditions: heme mixed with 30 pmol apo-horseradish peroxidase, 30 min, background corrected
T1 sequence (P00433 31-338): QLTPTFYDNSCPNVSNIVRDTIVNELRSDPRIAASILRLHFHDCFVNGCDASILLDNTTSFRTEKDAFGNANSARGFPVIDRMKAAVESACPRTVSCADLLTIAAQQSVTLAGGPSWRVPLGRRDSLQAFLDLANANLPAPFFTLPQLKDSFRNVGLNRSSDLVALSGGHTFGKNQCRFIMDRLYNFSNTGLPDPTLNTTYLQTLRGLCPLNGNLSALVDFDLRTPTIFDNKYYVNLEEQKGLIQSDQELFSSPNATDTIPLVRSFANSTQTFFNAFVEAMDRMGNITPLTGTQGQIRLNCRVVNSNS
Experimental: A 250 μM stock solution of horseradish peroxidase type VI (HRP, Sigma P8375, MW=44000 g/mol) was prepared by solubilizing 11 mg of lyophilized protein in 1 mL 100 mM sodium phosphate, pH 7.0.
Heme was extracted from horseradish peroxidase type VI (Sigma P8375) according to the method of Teale (Biochim. Biophys. Acta 35, 543, (1959)). The resultant apo-HRP was dialyzed into 100 mM sodium phosphate, pH 7.0, with 0.1 mM calcium chloride. The concentration of this stock apo-HRP solution was estimated from absorbance at 280 nm as 30 μM by assuming an extinction coefficient of 20000 cm^−1 M^−1 (Lasagna et al., Biophys. J. 76, 443, (1999)).
Within an hour before performing the peroxidase assay a fresh stock solution of approximately 1 mM heme (MW 652 g/mol) was prepared by first dissolving 38.9 mg heme (Sigma H5533) in 1 mL of 1.0M NaOH and then mixing 100 μL of the resulting solution with 6 mL 100 mM borate buffer, pH 9.1.
The absorbance data in Table 4 was acquired using a SpectraMax M2 plate reader (Molecular Devices) in 96-sample format. The HRP stock solution was diluted serially with 100 mM sodium phosphate, pH 7.0, to make 2000, 500 and 50 pM solutions. 10 μL of each solution was then mixed with 90 μL 3,3′,5,5′-tetramethylbenzidine (TMB) liquid substrate system (Sigma T8665) to define t=0. The absorbance at 650 nm was measured after 30 min and corrected for the absorbance of TMB solution without added HRP.
The heme stock solution was diluted serially with 100 mM borate buffer, pH 9.1, to make 2000 pM, 500 pM, and 50 pM solutions. 10 μL of each solution was first mixed with 1 μL of the apo-HRP stock solution and then immediately mixed with 90 μL TMB liquid substrate system to define t=0. The absorbance at 650 nm was measured after 30 min and corrected for the absorbance of a mixture of apo-HRP and TMB liquid substrate system without added heme.

[3] = target: T1, apo-horseradish peroxidase (apo-HRP); assay: Signal enhancement from HRP-based cascade using a chromogenic substrate (TMB); conditions: 6 minutes after adding TMB liquid substrate; mixtures pre-incubated 16 hours at room temperature
Experimental: The samples in Table 2 were prepared from the following stock solutions. A 120 μM stock solution of apo-HRP was prepared by adding 2 mL phosphate-buffered saline (PBS, Pierce 28372) to 10 mg lyophilized apo-HRP (Sigma 6278, MW=43000 g/mol). A 250 μM stock solution of horseradish peroxidase type VI (HRP, Sigma P8375, MW=44000 g/mol) was prepared by solubilizing 11 mg lyophilized protein in 1 mL 100 mM sodium phosphate, pH 7.0. A 1 kU/mL stock solution of butyrylcholine esterase was prepared by dissolving 1 kU lyophilized protein (Sigma C1057) in 1 mL phosphate-buffered saline (PBS, Pierce 28372). […] The 1 cm-path length absorbance of this 10% methanol solution was measured to be 17 absorbance units (au) at 390 nm using a NanoDrop-1000 Spectrophotometer. […]
Samples A1, A2, B1, and B2 were each combined with 95 μL 3,3′,5,5′-tetramethylbenzidine (TMB) liquid substrate system (Sigma T8665), which includes hydrogen peroxide. After 6 minutes OD was determined at 650 nm in a 96-well format using a SpectraMax M2 plate reader (Molecular Devices). These signals are recorded in Table 2 above.
Relative signal enhancement was calculated by subtracting appropriate background signals from wells A1 and A2, and then taking a ratio. […] The calculated signal enhancement is thus equal to (A1−B2)/(A2−B1), which corresponds to (1.05−0.16)/(0.10−0.04)=15. […]

[4] = target: T1, apo-horseradish peroxidase (apo-HRP); assay: Blocking and rescue of peroxidase activity with a chemiluminescent substrate; conditions: for Rescue of peroxidase activity of apo-HRP plus heme bis choline ester: esterase added to apo-HRP and heme bis choline ester
Experimental: (§1) A 1-kU/mL stock solution of butyrylcholine esterase was prepared by dissolving 1 kU of lyophilized protein (Sigma C1057) in 1 mL phosphate-buffered saline (PBS, Pierce 28372). An activity of 900 U per mg protein and MW=250000 g/mol was assumed and the concentration of the resultant solution was estimated as 4 μM.
as §1, with “1 kU/mL” for “1-kU/mL”, “acetylcholine” for “butyrylcholine”, “kU” for “kU of”, “C2888)” for “C1057)”, “1000” for “900”, “MW=280000” for “MW=250000”
A fresh 1 mM solution of heme was prepared in 100 mM borate buffer, pH 9.1, as described in Example 5. The 1 cm-path length absorbance of this solution was measured to be 40 at 390 nm using a NanoDrop-1000 Spectrophotometer (NanoDrop Technologies). A 0.1 mM heme solution was then prepared by mixing 100 μL of this stock with 900 μL in PBS.
Less than 1 mg heme bis choline ester was dissolved in 100 μL methanol. 10 μL of the methanol solution was then mixed with 90 μL 100 mM borate buffer, pH 9.1. The 1 cm-path length absorbance of this 10% methanol solution was measured to be 17 absorbance units (au) at 390 nm using a NanoDrop-1000 Spectrophotometer. Assuming the extinction coefficient of heme bis choline ester in 10% methanol was not substantially different than that of heme in PBS, a 0.1 mM solution of heme bis choline ester was then prepared by mixing 23.5 μL of the 10% methanol solution with 77.5 μL PBS.
Solutions of 0.3 μM apo-HRP, 10 μM heme and 10 μM heme bis choline ester in PBS were prepared by dilution of these stock solutions with PBS. […]
90 μL of freshly mixed chemiluminescent substrate (Sigma CPS260, an enhanced luminol product with a stabilized peroxide buffer solution) was added to reaction mixtures 1-6, which were allowed to incubate at room temperature for 5 minutes and the luminescence units (LU) for each was determined with a SpectraMax M2 plate reader in a 96-well format (Molecular Devices), shown below in Table 5.

butyrylcholine esterase (BCE), sequence (P81908 whole entry): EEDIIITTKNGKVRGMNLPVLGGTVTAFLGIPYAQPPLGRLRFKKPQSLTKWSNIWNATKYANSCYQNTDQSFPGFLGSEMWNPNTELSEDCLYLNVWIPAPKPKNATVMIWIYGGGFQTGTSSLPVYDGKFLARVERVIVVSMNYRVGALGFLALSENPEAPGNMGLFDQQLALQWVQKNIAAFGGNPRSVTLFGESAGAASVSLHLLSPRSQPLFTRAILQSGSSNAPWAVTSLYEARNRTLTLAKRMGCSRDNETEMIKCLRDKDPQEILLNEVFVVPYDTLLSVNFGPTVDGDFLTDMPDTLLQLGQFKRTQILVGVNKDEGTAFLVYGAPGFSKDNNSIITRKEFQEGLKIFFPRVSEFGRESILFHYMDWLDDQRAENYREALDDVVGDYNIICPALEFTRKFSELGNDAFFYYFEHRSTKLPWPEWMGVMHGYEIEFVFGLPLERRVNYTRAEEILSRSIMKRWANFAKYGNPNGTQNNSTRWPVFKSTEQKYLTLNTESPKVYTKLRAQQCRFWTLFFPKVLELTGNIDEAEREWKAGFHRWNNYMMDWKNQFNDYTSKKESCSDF

C=CC1=C(C)c2cc3[n-]c(cc4[n-]c(cc5nc(cc1n2)C(C)=C5C=C)c(C)c4CCC(=O)O)c(CCC(=O)O)c3C.[Fe+2] [Heme, heme]
HPLC peak area (hydrolysis progress) ([1]; 0.75 hr): 7 AUC units | HPLC peak area (hydrolysis progress) ([1]; 2.75 hr): 12 AUC units | HPLC peak area (hydrolysis progress) ([1]; 21 hr): 21 AUC units | OD 650 nm ([2]; 5 fmol): 0.07 | OD 650 nm ([2]; 20 fmol): 0.79

A2: 5 μL of 0.13 nM HRP (0.7 fmol) [Sample A2]
OD 650 nm [3]: 0.10

BCE: butyrylcholine esterase (Sigma C1057)
Rescue of peroxidase activity of apo-HRP plus heme bis choline ester [4]: rescued

acetylcholine esterase: acetylcholine esterase (Sigma C2888)
Rescue of peroxidase activity of apo-HRP plus heme bis choline ester [4]: did not demonstrably rescue peroxidase activity

heme bis choline ester [Bis ester]
Hydrolysis vs. Time, converted to concentration ([1]; 0 hr): 100 AUC units | Hydrolysis vs. Time, converted to concentration ([1]; 0.75 hr): 60 AUC units | Hydrolysis vs. Time, converted to concentration ([1]; 2.75 hr): 52 AUC units | Hydrolysis vs. Time, converted to concentration ([1]; 21 hr): 41 AUC units | Peroxidase activity of mixture with apo-HRP compared with heme ([4]; sample 1 versus sample 4, 10-fold excess of heme bis choline ester): less peroxidase activity

heme mono choline ester [Mono ester]
Hydrolysis vs. Time, converted to concentration ([1]; 0.75 hr): 28 AUC units | Hydrolysis vs. Time, converted to concentration ([1]; 2.75 hr): 29 AUC units | Hydrolysis vs. Time, converted to concentration ([1]; 21 hr): 24 AUC units

horseradish peroxidase: horseradish peroxidase type VI (Sigma P8375)
OD 650 nm ([2]; 5 fmol): 0.88 | OD 650 nm ([2]; 20 fmol): 3.4
